Some results are limits rather than exact numbers.

For assay [1], the target named is T1, human adenosine A1 receptor (Homo sapiens, UniProt P30542).
T1 construct: expressed in transfected cells; host or cells: HEK293 cells infected with BacMam (the same paragraph also labels the preparation CHO-hA1)
T1 sequence (P30542 1-326): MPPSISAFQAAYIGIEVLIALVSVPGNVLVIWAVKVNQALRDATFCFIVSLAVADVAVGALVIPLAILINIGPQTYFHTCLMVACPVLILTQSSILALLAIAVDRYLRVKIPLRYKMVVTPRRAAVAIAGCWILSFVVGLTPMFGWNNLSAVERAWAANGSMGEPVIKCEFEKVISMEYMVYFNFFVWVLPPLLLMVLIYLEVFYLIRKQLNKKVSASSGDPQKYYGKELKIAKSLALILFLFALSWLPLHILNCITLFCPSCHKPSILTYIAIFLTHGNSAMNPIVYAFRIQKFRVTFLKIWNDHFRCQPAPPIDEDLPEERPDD
The assay can be described thus: Inhibition binding assay, human adenosine A1 receptor membranes, [3H]DPCPX. To be noted: 1 nM [3H]DPCPX, 25° C., 1 h; IC50 converted to Ki with Cheng-Prusoff; read-out: A1 pKi (converted). As to the method:
(§1) Inhibition binding assays were performed using 0.2 μg of membranes prepared from HEK293 cells infected with BacMam human adenosine A2A receptor or 1.4 μg of membranes prepared from HEK293 cells infected with BacMam human adenosine A1 receptor. Membranes were incubated in 50 mM Tris-HCl (HEK293-hA2A; pH 7.4) or 50 mM Tris-HCl, 100 mM NaCl, 10 mM MgCl2 (CHO-hA1; pH 7.4) in the presence of varying concentrations of test compound and 1 nM [^3H]ZM241385 (HEK293-hA2A) or [^3H]DPCPX (CHO-hA1) at 25° C. for 1 h. The assay was then terminated by rapid filtration onto GF/B grade Unifilter plates using a TomTec cell harvester, followed by 5×0.5 ml washes with ddH2O. Nonspecific binding was defined in the presence of 1 μM CGS15943 (HEK293-hA2A) or 1 μM DPCPX (CHO-hA1). Bound radioactivity was determined by liquid scintillation counting and inhibition curves were analysed using a four-parameter logistic equation. IC50 values were converted to Ki values with the Cheng-Prusoff equation using a KD value derived from saturation binding studies.

For assay [2], the target named is T2, human adenosine A2A receptor (Homo sapiens, UniProt P29274).
T2 construct: expressed in transfected cells; host or cells: HEK293 cells infected with BacMam
The assay can be described thus: Inhibition binding assay, human adenosine A2A receptor membranes, [3H]ZM241385. To be noted: 1 nM [3H]ZM241385, HEK293-hA2A membranes, 25° C., 1 h; IC50 converted to Ki with Cheng-Prusoff; read-out: A2A pKi (converted). As to the method:
as §1

T2 sequence (P29274 whole entry): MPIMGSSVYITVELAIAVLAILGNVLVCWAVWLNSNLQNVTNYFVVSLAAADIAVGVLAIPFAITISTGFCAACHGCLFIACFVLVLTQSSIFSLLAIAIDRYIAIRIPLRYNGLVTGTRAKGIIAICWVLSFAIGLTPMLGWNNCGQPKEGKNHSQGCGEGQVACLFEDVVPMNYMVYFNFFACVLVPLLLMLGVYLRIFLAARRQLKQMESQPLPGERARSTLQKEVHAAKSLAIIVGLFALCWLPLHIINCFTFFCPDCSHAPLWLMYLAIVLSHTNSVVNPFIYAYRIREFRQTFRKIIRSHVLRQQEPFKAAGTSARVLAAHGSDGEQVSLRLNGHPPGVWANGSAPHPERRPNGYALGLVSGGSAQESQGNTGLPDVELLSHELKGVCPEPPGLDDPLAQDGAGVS

For `Cc1cc(-c2c(-c3ccccc3)nc(N)n3c(=O)n(CCc4ccc(C(=O)O)cc4)nc23)cc(C)n1` [Example 1-85, 4-[2-[5-amino-8-(2,6-dimethyl-4-pyridyl)-3-oxo-7-phenyl-[1,2,4]triazolo[4,3-c]pyrimidin-2-yl]ethyl]benzoic acid], the results for the Ki in assay [1] and in assay [2] were above 3980 nM and 200 nM, respectively.

As to `Cc1cc(-c2c(-c3ccccc3)nc(N)n3c(=O)n(CC45CC(F)(C4)C5)nc23)cc(CO)n1` [Example 2-59, 5-amino-2-[(3-fluoro-1-bicyclo[1.1.1]pentanyl)methyl]-8-[2-(hydroxymethyl)-6-methyl-4-pyridyl]-7-phenyl-[1,2,4]triazolo[4,3-c]pyrimidin-3-one], the Ki in assay [1] was 316 nM; in assay [2], 3.98 nM.

On to `CCOC(=O)NCCn1nc2c(-c3cc(C)nc(C)c3)c(-c3ccccc3)nc(N)n2c1=O` [Example 2-12, ethyl N-[2-[5-amino-8-(2,6-dimethyl-4-pyridyl)-3-oxo-7-phenyl-[1,2,4]triazolo[4,3-c]pyrimidin-2-yl]ethyl]carbamate], for which the results for the Ki in assay [1] and in assay [2] were 501 nM and 10 nM, respectively.

`Cc1cc(-c2c(-c3ccccc3)nc(N)n3c(=O)n(C[C@@H]4CN(C(=O)OC(C)(C)C)CCO4)nc23)cc(C)n1` [Example 2-69, tert-butyl (2S)-2-[[5-amino-8-(2,6-dimethyl-4-pyridyl)-3-oxo-7-phenyl-[1,2,4]triazolo[4,3-c]pyrimidin-2-yl]methyl]morpholine-4-carboxylate]: the figures for the Ki in assay [1] and in assay [2] were 398 nM and 6.31 nM, respectively.

Take `Cc1cc(-c2c(-c3ccccc3)nc(N)n3c(=O)n(CCC4CCN(C)CC4)nc23)cc(C)n1` [Example 2-97, 5-amino-8-(2,6-dimethyl-4-pyridyl)-2-[2-(1-methyl-4-piperidyl)ethyl]-7-phenyl-[1,2,4]triazolo[4,3-c]pyrimidin-3-one]: the Ki is 631 nM in assay [1] and 6.31 nM in assay [2].

In the case of `Cc1cc(-c2c(-c3ccccc3)nc(N)n3c(=O)n(CC4CCCCO4)nc23)cc(CO)n1` (single isomer, unassigned) [Example 2-91-iso-1, 5-amino-8-[2-(hydroxymethyl)-6-methyl-4-pyridyl]-7-phenyl-2-(tetrahydropyran-2-ylmethyl)-[1,2,4]triazolo[4,3-c]pyrimidin-3-one], the Ki in assay [1] was 631 nM; in assay [2], 1.26 nM.

Consider `COc1cc(-c2c(-c3ccccc3)nc(N)n3c(=O)n(Cc4ccc(C)cn4)nc23)cc(CO)n1` [Example 1-66, 5-amino-8-[2-(hydroxymethyl)-6-methoxy-4-pyridyl]-2-[(5-methyl-2-pyridyl)methyl]-7-phenyl-[1,2,4]triazolo[4,3-c]pyrimidin-3-one], for which the results for the Ki in assay [1] and in assay [2] were 501 nM and 0.631 nM, respectively.

Regarding `Cc1cc(-c2c(-c3ccccc3)nc(N)n3c(=O)n(CC4CCN(C)CC4)nc23)cc(C)n1` [Example 2-78, 5-amino-8-(2,6-dimethyl-4-pyridyl)-2-[(1-methyl-4-piperidyl)methyl]-7-phenyl-[1,2,4]triazolo[4,3-c]pyrimidin-3-one], the Ki in assay [1] was above 3160 nM; in assay [2] it was 200 nM.

As for `Cc1cc(-c2c(-c3ccccc3)nc(N)n3c(=O)n(Cc4ccc(F)c(=O)[nH]4)nc23)cc(C)n1` [Example 1-8, 5-amino-8-(2,6-dimethyl-4-pyridyl)-2-[(5-fluoro-6-oxo-1H-pyridin-2-yl)methyl]-7-phenyl-[1,2,4]triazolo[4,3-c]pyrimidin-3-one], the Ki in assay [1] is 316 nM; in assay [2] it was 25.1 nM.

Regarding `Cc1cc(-c2c(-c3ccccc3)nc(N)n3c(=O)n(CC45C6C7C8C6C4C8C75)nc23)cc(CO)n1` (centres unmarked) [Example 2-62, 5-amino-2-(cuban-1-ylmethyl)-8-[2-(hydroxymethyl)-6-methyl-4-pyridyl]-7-phenyl-[1,2,4]triazolo[4,3-c]pyrimidin-3-one], the Ki in assay [1] is 31.6 nM; in assay [2], 0.316 nM.

Consider `Cc1cc(-c2c(-c3ccccc3)nc(N)n3c(=O)n(CCCn4ccccc4=O)nc23)cc(C)n1` [Example 2-112, 5-amino-8-(2,6-dimethylpyridin-4-yl)-2-(3-(2-oxopyridin-1(2H)-yl)propyl)-7-phenyl-[1,2,4]triazolo[4,3-c]pyrimidin-3(2H)-one], for which the Ki in assay [1] was 200 nM; in assay [2] it was 3.16 nM.

As for `COc1cc(C)nc(Cn2nc3c(-c4cc(C)nc(C)c4)c(-c4ccccc4)nc(N)n3c2=O)c1` [Example 1-29, 5-amino-8-(2,6-dimethyl-4-pyridyl)-2-[(4-methoxy-6-methyl-2-pyridyl)methyl]-7-phenyl-[1,2,4]triazolo[4,3-c]pyrimidin-3-one], the Ki in assay [1] is 12.6 nM; in assay [2] it was 0.501 nM.

On to `Cc1cc(-c2c(-c3ccccc3)nc(N)n3c(=O)n(C[C@H]4COCCN4)nc23)cc(C)n1` [Example 2-76, 5-amino-8-(2,6-dimethyl-4-pyridyl)-2-[[(3S)-morpholin-3-yl]methyl]-7-phenyl-[1,2,4]triazolo[4,3-c]pyrimidin-3-one], for which the Ki is 631 nM in assay [1] and 15.8 nM in assay [2].

As to `Cc1cc(-c2c(-c3ccccc3)nc(N)n3c(=O)n(C(CN)c4c(F)cccc4F)nc23)cc(C)n1` (centres unmarked) [Example 1-34, 5-amino-2-(2-amino-1-(2,6-difluorophenyl)ethyl)-8-(2,6-dimethylpyridin-4-yl)-7-phenyl-[1,2,4]triazolo[4,3-c]pyrimidin-3(2H)-one], the Ki in assay [1] is 100 nM; in assay [2], 1 nM.

For `Cc1cc(-c2c(-c3ccccc3)nc(N)n3c(=O)n(CCN4CCCCCC4c4cccn4C)nc23)cc(C)n1` (centres unmarked) [Example 1-96, 5-amino-8-(2,6-dimethyl-4-pyridyl)-2-[2-[2-(1-methylpyrrol-2-yl)azepan-1-yl]ethyl]-7-phenyl-[1,2,4]triazolo[4,3-c]pyrimidin-3-one], the values for the Ki in assay [1] and in assay [2] were 251 nM and 3.98 nM, respectively.

In the case of `Cc1cc(-c2c(-c3ccc(F)cc3)nc(N)n3c(=O)n(CCC(F)(F)F)nc23)cc(C)n1` [Example 2-33, 5-amino-8-(2,6-dimethyl-4-pyridyl)-7-(4-fluorophenyl)-2-(3,3,3-trifluoropropyl)-[1,2,4]triazolo[4,3-c]pyrimidin-3-one], the values for the Ki in assay [1] and in assay [2] were 631 nM and 1.26 nM, respectively.

`Cc1cc(-c2c(-c3ccccc3)nc(N)n3c(=O)n(Cc4ncc(F)cc4Cl)nc23)cc(CO)n1` [Example 1-50, 5-amino-2-[(3-chloro-5-fluoro-2-pyridyl)methyl]-8-[2-(hydroxymethyl)-6-methyl-4-pyridyl]-7-phenyl-[1,2,4]triazolo[4,3-c]pyrimidin-3-one]: the Ki in assay [1] is 200 nM; in assay [2], 1 nM.

Regarding `Cc1cc(-c2c(-c3ccccc3)nc(N)n3c(=O)n(Cc4ccccc4SC(F)F)nc23)cc(C)n1` [Example 1-16, 5-amino-2-[[2-(difluoromethylsulfanyl)phenyl]methyl]-8-(2,6-dimethyl-4-pyridyl)-7-phenyl-[1,2,4]triazolo[4,3-c]pyrimidin-3-one], the Ki in assay [1] is 1 nM; in assay [2], 0.251 nM.

Consider `CCC1(C)CC1Cn1nc2c(-c3cc(C)nc(C)c3)c(-c3ccccc3)nc(N)n2c1=O` (centres unmarked) [Example 2-27, 5-amino-8-(2,6-dimethyl-4-pyridyl)-2-[(2-ethyl-2-methyl-cyclopropyl)methyl]-7-phenyl-[1,2,4]triazolo[4,3-c]pyrimidin-3-one], for which the values for the Ki in assay [1] and in assay [2] were 31.6 nM and 0.631 nM, respectively.

`Cc1cc(-c2c(-c3ccccc3)nc(N)n3c(=O)n(CC4CCCCO4)nc23)cc(C)n1` (centres unmarked) [Example 2-82, 5-amino-8-(2,6-dimethyl-4-pyridyl)-7-phenyl-2-(tetrahydropyran-2-ylmethyl)-[1,2,4]triazolo[4,3-c]pyrimidin-3-one]: the Ki in assay [1] was 251 nM; in assay [2], 0.316 nM.

For the compound `COc1ccc(Cn2nc3c(-c4cc(C)nc(C)c4)c(-c4ccccc4)nc(N)n3c2=O)nn1` [Example 1-33, 5-amino-8-(2,6-dimethyl-4-pyridyl)-2-[(6-methoxypyridazin-3-yl)methyl]-7-phenyl-[1,2,4]triazolo[4,3-c]pyrimidin-3-one], the Ki was 1000 nM in assay [1] and 25.1 nM in assay [2].

With `Cc1cc(-c2c(-c3ccccc3)nc(N)n3c(=O)n(CC4CCCOC4)nc23)cc(C)n1` (single isomer, unassigned) [Example 2-81-iso-1, 5-amino-8-(2,6-dimethyl-4-pyridyl)-7-phenyl-2-(tetrahydropyran-3-ylmethyl)-[1,2,4]triazolo[4,3-c]pyrimidin-3-one], the Ki in assay [1] is 158 nM; in assay [2], 2 nM.
